Measured values taken from the NIST ThermoML archive (doi:10.1021/je050001c).

Details: 101.33 kPa, Liquid

CCOC(=O)CC [ethyl propanoate]
Details	mass density [kg/m3]
293.15 K	891.62
298.15 K	884.1
303.15 K	879.31
308.15 K	874.12
313.15 K	870.61
318.15 K	867.34
323.15 K	864.33
328.15 K	860.89
333.15 K	858.14
338.15 K	856.81
343.15 K	853.48

Falling or rolling sphere viscometry
Details	viscosity [mPa·s]
293.15 K	0.523
298.15 K	0.492
303.15 K	0.464
308.15 K	0.441
313.15 K	0.418
318.15 K	0.398
323.15 K	0.378
328.15 K	0.36
333.15 K	0.344
338.15 K	0.329
343.15 K	0.315

CCCCOC(C)=O [butyl ethanoate]
Details	mass density [kg/m3]
293.15 K	881.04
298.15 K	876.45
303.15 K	871.3
308.15 K	866.25
313.15 K	861.84
318.15 K	857.32
323.15 K	854.61
328.15 K	850.78
333.15 K	847.92
338.15 K	844.39
343.15 K	841.77

Falling or rolling sphere viscometry
Details	viscosity [mPa·s]
293.15 K	0.732
298.15 K	0.677
303.15 K	0.628
308.15 K	0.585
313.15 K	0.546
318.15 K	0.512
323.15 K	0.481
328.15 K	0.453
333.15 K	0.428
338.15 K	0.405
343.15 K	0.384

CCOC=O [ethyl methanoate]
Details	mass density [kg/m3]
293.15 K	917.82
298.15 K	912.06
303.15 K	907.68
308.15 K	899.54
313.15 K	891.5
318.15 K	887.41
323.15 K	882.14

Falling or rolling sphere viscometry
Details	viscosity [mPa·s]
293.15 K	0.402
298.15 K	0.381
303.15 K	0.362
308.15 K	0.345
313.15 K	0.329
318.15 K	0.314
323.15 K	0.3

CCCCCCOC(=O)CCC [hexyl butanoate]
Details	mass density [kg/m3]	viscosity [mPa·s]
293.15 K	860.73	1.351
298.15 K	851	1.234
303.15 K	846.52	1.131
308.15 K	841.51	1.014
313.15 K	837.46	0.961
318.15 K	834.65	0.889
323.15 K	830.78	0.825
328.15 K	828.19	0.768
333.15 K	826.77	0.716
338.15 K	823.81	0.669
343.15 K	820.76	0.627

CCC/C=C/COC(C)=O [(E)-2-hexenyl acetate]
Details	mass density [kg/m3]
293.15 K	897.84
298.15 K	894.32
303.15 K	891.78
308.15 K	888.46
313.15 K	884.35
318.15 K	880.19
323.15 K	876.14
328.15 K	872.81
333.15 K	867.49

Falling or rolling sphere viscometry
Details	viscosity [mPa·s]
293.15 K	0.901
298.15 K	0.831
303.15 K	0.77
308.15 K	0.715
313.15 K	0.666
318.15 K	0.622
323.15 K	0.582
328.15 K	0.547
333.15 K	0.514

CCCC(=O)OCCC(C)C [3-methylbutyl butanoate]
Details	mass density [kg/m3]
293.15 K	866.13
298.15 K	862.04
303.15 K	859.14
308.15 K	857.08
313.15 K	853.42
318.15 K	850.11
323.15 K	845.78
328.15 K	842.31
333.15 K	840.73
338.15 K	835.45
343.15 K	832.76

Falling or rolling sphere viscometry
Details	viscosity [mPa·s]
293.15 K	1.044
298.15 K	0.967
303.15 K	0.897
308.15 K	0.836
313.15 K	0.781
318.15 K	0.731
323.15 K	0.686
328.15 K	0.646
333.15 K	0.609
338.15 K	0.575
343.15 K	0.545

CCCC(=O)OCC [ethyl butanoate]
Details	mass density [kg/m3]
293.15 K	876.91
298.15 K	874.42
303.15 K	870.13
308.15 K	866.21
313.15 K	864.31
318.15 K	861.32
323.15 K	858.43
328.15 K	854.44
333.15 K	853.89
338.15 K	851.32
343.15 K	850.04

Falling or rolling sphere viscometry
Details	viscosity [mPa·s]
293.15 K	0.662
298.15 K	0.62
303.15 K	0.583
308.15 K	0.549
313.15 K	0.519
318.15 K	0.491
323.15 K	0.465
328.15 K	0.442
333.15 K	0.42
338.15 K	0.4
343.15 K	0.382

CC/C=C\CCOC(C)=O [(Z)-3-hexenyl acetate]
Details	mass density [kg/m3]
293.15 K	900.82
298.15 K	897.14
303.15 K	893.14
308.15 K	890.28
313.15 K	886.19
318.15 K	881.43
323.15 K	877.89
328.15 K	875.21
333.15 K	871.43

Falling or rolling sphere viscometry
Details	viscosity [mPa·s]
293.15 K	0.893
298.15 K	0.823
303.15 K	0.763
308.15 K	0.708
313.15 K	0.66
318.15 K	0.616
323.15 K	0.576
328.15 K	0.542
333.15 K	0.509
